Test results taken from patent publication US20150050368A1, “METHOD FOR PRODUCING A PLANT EXTRACT FROM DESMODIUM AND ITS EXTRACT THEREOF” (priority 2012, published 2015).

Key:
[1] = tested on: liver injury induced by galactosamine; assay: preventive effect of Desmodium adscendens decoction against galactosamine-induced liver injury in rats; type: in vivo, Sprague Dawley rats; settings: 48 h after D-galactosamine 650 mg/kg IP; oral gavage; Desmodium equivalent to 20 or 5 mg/kg D-pinitol, D-pinitol 20 mg/kg, silymarin 20 mg/kg
Source text: As far as the in vivo evaluation of the hepato-protective effect of Desmodium adscendens decoction is concerned, D-pinitol has a hepato-protective effect. One of the constituents of Desmodium adscendens is D-pinitol. […] In this in vivo experiment the preventive effect of a decoction of Desmodium adscendens against liver injury induced by galactosamine was investigated in rats. Silymarin was used as the reference agent. Silymarin is a mixture of various flavanolignans from the fruits of the milk thistle plant, Silybum marianum. The principal components are silybin, […]. In addition, small quantities of isosilybin are present in milk thistle. […] The liver injury and the possible hepato-protective effect were evaluated by determining the following parameters in serum: ALT (=GPT), AST (=GOT), ALP. […] After administration of the hepatotoxic agent D-galactosamine, both after 24 h and after 48 h, liver injury was observed through a marked increase in the three parameters determined (control vs. hepatotox).

[2] = tested on: ethanol-induced liver injury; assay: protective effect against ethanol-induced liver injury in rats; type: in vivo, male Wistar rats
Source text: The purpose of the experiment is to evaluate the hepatoprotective effects of decoct of Desmodium adscendens against ethanol-induced liver injury, standardized to its primary ingredient: D-pinitol. Materials and Methods: 66 male Wistar rats of 200-225 g (Charles River, Brussels, Belgium) were randomly divided into 6 groups: the negative control group (CON: no hepatotoxic agent, no treatment: 8 rats), the hepatotoxic group (HEP: induction of hepatotoxicity, no treatment: 20 rats), the Desmodium I group (induction of hepatotoxicity, treatment with Desmodium adscendens decoct, equivalent to 2 mg/kg of D-pinitol: 10 rats), the group II Desmodium (induction of hepatotoxicity, treatment with Desmodium adscendens decoct, equivalent to 10 mg/kg of D-pinitol: 10 rats), the D-pinitol group (PIN: induction of hepatotoxicity, treatment with 10 mg/kg of D-pinitol: 10 rats), the positive control group (SIL: induction of hepatotoxicity, treatment with 20 mg/kg of silymarin: 8 rats). 2 days prior to ethanol administration, an appropriate amount of lyophilized decoct, pinitol silymarin or suspended in water and administered by gavage (or vehicle for the control group). Hepatotoxicity was induced by daily oral gavage with a 55% ethanol solution (except for the negative control group). […] Ethanol was administered for a period of 7 weeks. Was administered daily, depending on the group, treated with the specific decoct, pinitol or silymarin (oral gavage) to the end of the experiment. For ethanol administration (default values), and at weeks 3, 4, 5 and 6, blood samples (1.5 ml) were taken from the lateral tail vein (Multi Fat 600, Sarstedt). This experiment was approved by the Ethics Committee for Animal Experiments of the University of Antwerpen (17-01-2011, 2010-37).
A schematic overview of the different treatment groups is given below next. Concentrations of enzyme aspartate transaminase (AST, GOT) and alanine transaminase (ALT, GPT) were in the serum samples from the test animals as determined by routine laboratory techniques (Senior, 2009). Elevated levels can be considered as an indication of liver cell destruction or a change in membrane permeability.
Statistics to analyze the difference between CON and HEP for AST and ALT, and between HEP and DES 1, DES 2, PIN and SIL for AST and ALT, was a mixed model analyze performed. The log-rank test was performed for statistical analysis of survival data.

[3] = tested on: 3T3-L1 adipocytes; settings: cited from earlier work
[4] = tested on: L6 rat muscle cells; settings: cited from earlier work
[5] = tested on: foam cells; settings: cited from earlier work
[6] = tested on: LPS-induced dendritic bone marrow cells; settings: cited from earlier work
[7] = tested on: neutrophils; settings: cited from earlier work
[8] = tested on: streptozotocin-induced diabetic mice; settings: mouse, in vivo; cited from earlier work
[9] = tested on: severely insulin-resistant mice; settings: mouse, in vivo; cited from earlier work
[10] = tested on: streptozotocin-induced diabetic rats; settings: rat, in vivo; cited from earlier work
[11] = tested on: liver injury with galactosamine; settings: after induction of liver injury with galactosamine; cited from earlier work
[12] = tested on: carrageenan-induced oedema of the paw; cotton pellet granuloma; settings: cited from earlier work
[13] = tested on: OVA-induced asthma; settings: mouse, in vivo; cited from earlier work
[14] = tested on: patients with type 2 diabetes; settings: cited from earlier work
[15] = tested on: insulin-resistant patients; settings: 20 mg/kg/day for 4 weeks; cited from earlier work
[16] = tested on: older, non-diabetic patients; settings: intake for 6 weeks; cited from earlier work
[17] = in vivo; cited from earlier work
[18] = after 4 weeks of ethanol, daily oral gavage, DES1 eq. 2, DES2 eq. 10 mg/kg D-pinitol, PIN 10 mg/kg, SIL 20 mg/kg
[19] = after 5 weeks of ethanol, daily oral gavage, DES1 eq. 2, DES2 eq. 10 mg/kg D-pinitol, PIN 10 mg/kg, SIL 20 mg/kg
[20] = after 6 weeks of ethanol, daily oral gavage, DES1 eq. 2, DES2 eq. 10 mg/kg D-pinitol, PIN 10 mg/kg, SIL 20 mg/kg
[21] = 13 weeks of treatment with 2×60 mg per day

CO[C@H]1[C@H](O)[C@@H](O)[C@@H](O)[C@H](O)[C@@H]1O [D-pinitol, 3-O-methyl-chiro-inositol]
ALT (GPT) in serum compared with the hepatotoxic group [1]: decreased significantly | AST (GOT) in serum compared with the hepatotoxic group [1]: decreased significantly | survival of test animals ([2]; W0, DES1 eq. 2, DES2 eq. 10 mg/kg D-pinitol, PIN 10 mg/kg, SIL 20 mg/kg): 100% | survival of test animals ([2]; W1 of ethanol, DES1 eq. 2, DES2 eq. 10 mg/kg D-pinitol, PIN 10 mg/kg, SIL 20 mg/kg): 100% | survival of test animals ([2]; W2 of ethanol, DES1 eq. 2, DES2 eq. 10 mg/kg D-pinitol, PIN 10 mg/kg, SIL 20 mg/kg): 70% | survival of test animals ([2]; W3 of ethanol, DES1 eq. 2, DES2 eq. 10 mg/kg D-pinitol, PIN 10 mg/kg, SIL 20 mg/kg): 60% | survival of test animals ([2]; W4 of ethanol, DES1 eq. 2, DES2 eq. 10 mg/kg D-pinitol, PIN 10 mg/kg, SIL 20 mg/kg): 60% | survival of test animals ([2]; W5 of ethanol, DES1 eq. 2, DES2 eq. 10 mg/kg D-pinitol, PIN 10 mg/kg, SIL 20 mg/kg): 50% | survival of test animals ([2]; W6 of ethanol, DES1 eq. 2, DES2 eq. 10 mg/kg D-pinitol, PIN 10 mg/kg, SIL 20 mg/kg): 40% | survival of test animals ([2]; W6 of ethanol, DES1 eq. 2, DES2 eq. 10 mg/kg D-pinitol, PIN 10 mg/kg, SIL 20 mg/kg, listed as PIN): 40% | Serum ALT ALT_4 Average [2, 18]: 75.9 | Serum AST AST_4 Average [2, 18]: 89.3 U/I | Serum ALT ALT_5 Mean [2, 19]: 61.6 | Serum AST AST_5 Average [2, 19]: 78.3 U/I | Serum ALT ALT_6 Mean [2, 20]: 65.6 | Serum AST AST_6 Mean [2, 20]: 86.3 U/I | statistical difference in survival vs the hepatotoxic group ([2]; log-rank test, 6 weeks, DES 1 eq. 2, DES 2 eq. 10 mg/kg pinitol, pinitol 10 mg/kg, silymarin 20 mg/kg): No statistically significant difference | expression of adiponectin mRNA ([3]; 1 mM): increases expression of adiponectin mRNA | mRNA expression of GLUT4, IRS, PPARγ and C/EBP ([3]; 0.5 and 1 mM): increases the mRNA expression | basal uptake of 2-deoxyglucose ([4]; L6 muscle cells): increases the basal uptake of 2-deoxyglucose | translocation of GLUT4 to the cell membrane ([4]; L6 rat muscle cells): induces the translocation of GLUT4 to the cell membrane | formation of foam cells [5]: moderately decreases | production of IL-12 and pro-inflammatory cytokines ([6]; LPS-induced): reduces the production | expression of MHC-I, MHC-II, CD80 and CD86 ([6]; in vitro and in vivo): decreases the expression | TNF-alpha expression [7]: inhibits TNF-alpha expression | hypoglycaemic effect [8]: acute and chronic hypoglycaemic effect | efficacy [9]: not effective | AST, ALT and alkaline phosphatase values in the liver [10]: normalises | blood glucose, haemoglobin and insulin [10]: lowers blood glucose haemoglobin and increases insulin | effect on lipids [10]: lipid-lowering effect | AST and ALT liver values and TNF-α values [11]: normalises | lipid peroxidation [11]: reduces lipid peroxidation | effect against acute inflammation ([12]; carrageenan-induced oedema of the paw): anti-inflammatory properties | effect against subacute inflammation ([12]; cotton pellet granuloma): anti-inflammatory properties | hyperreactivity and inflammation observed in asthma [13]: reduces | number of inflammatory cells in bronchoalveolar lavage fluid [13]: decreases | HDL cholesterol values [14, 21]: increased | total cholesterol, LDL/HDL ratio and systolic and diastolic blood pressures [14, 21]: decreased | fasting glucose values, HbA1c values and insulin ([14]; human, in vivo): favourable effect | fasting and postprandial glucose values and HbA1c values ([14]; uncontrolled type 2 diabetes, 12 weeks, 20 mg/kg/day, in addition to the usual therapy): improves | levels of adiponectin, leptin, C-reactive protein (CRP) and free fatty acids ([14]; uncontrolled type 2 diabetes, 12 weeks, 20 mg/kg/day): does not significantly change | basal and insulin-mediated glucose or lipid metabolism [15]: no effect | insulin-mediated glucose metabolism [16]: no effect | metabolism in humans [17]: metabolised partly to D-chiro-inositol
